Patent US20090010873A1, “Methods of Cell Therapy, Neurogenesis and Oligodendrogenesis” (YEDA RESEARCH AND DEVELOPMENT CO. LTD., priority 2004, published 2009)

Tested on: aNPCs
Experiment: Neuronal differentiation of aNPCs with CD4+ T cells, T cell-conditioned medium or cytokines
Format: cell-based, mouse
Details: aNPCs cultured 5 days with the cytokine
Description: (xxxiii) Co-culturing of neural progenitor cells and T cells. CD4+ T cells were purified from lymph nodes of 8-week-old C57B16/J mice as previously described (Kipnis et al., 2004). T cells were activated in RPMI medium supplemented with L-glutamine (2 mM), 2-mercaptoethanol (5×10^−5 M), sodium pyruvate (1 mM), penicillin (100 IU/ml), streptomycin (100 μg/ml), nonessential amino acids (1 ml/100 ml), and autologous serum 2% (v/v) in the presence of mouse recombinant IL-2 (mrIL-2; 5 ng/ml) and soluble anti-CD28 and anti-CD3 antibodies (1 ng/ml). T cells were co-cultured (5×10^4 cells/well) with aNPCs (5×10^4 cells/well) for 5 d on cover slips coated with Matrigel (BD Biosciences) in 24-well plates. The cultures were then fixed with 2.5% paraformaldehyde in PBS for 30 min at room temperature and stained for neuronal markers.
We therefore sought to determine whether direct interaction between aNPCs and T cells would also result in an altered pattern of aNPC differentiation. To address this question, we activated CD4+ T cells in vitro by a cognate protocol (with anti-CD3 antibodies, anti-CD28 antibodies, and IL-2) for 24 h and then allowed their activation to continue in co-cultures with aNPCs in a transwell culture system. […] After 5 days in culture the aNPCs in the lower chamber were fixed and analyzed for the appearance of newly formed neurons. […]

IFN-γ
concentration (as low as) inducing an increase in β-III tubulin expression: 1 ng/mL
